The source made the active and inactive calls. The calls are words filed in the database; no cut-off is given here.

As a reminder, the Ki is a dissociation constant, usually derived from enzyme kinetics or from competition with a known ligand. A word on the IC50: it is the concentration that inhibits the measured activity by half.

The species named for series [1] is Danio rerio. The series is described as follows: Neuroprotective activity against Abeta42 induced zebrafish AD model assessed as reversal of reduction in synaptic integrity at 10 uM measured after 5 days. In kind it is functional, organism-based. The note with it: time 5.0 day.
Series [2] concerns the target Glutamate receptor ionotropic, NMDA 2B (Homo sapiens, UniProt Q13224). As to the kind of experiment: Displacement of [3H]ifenprodil from recombinant human GluN2B NMDA receptor (unknown origin) expressed in dexamethasone-induced mouse L-M(TK-) cell after 120 mins by microbeta scintillation counting method. It counts as cell-based. In general terms: Displacement assays read how much labelled ligand stays bound in the presence of the test substance.

In another series the target is Acetylcholinesterase (Homo sapiens, UniProt P22303). As to the kind of experiment: Inhibition of human recombinant AChe using acetylthiocholine iodide as substrate incubated for 10 mins by DTNB reagent based Ellman's method.
Chain of Acetylcholinesterase (P22303 whole entry): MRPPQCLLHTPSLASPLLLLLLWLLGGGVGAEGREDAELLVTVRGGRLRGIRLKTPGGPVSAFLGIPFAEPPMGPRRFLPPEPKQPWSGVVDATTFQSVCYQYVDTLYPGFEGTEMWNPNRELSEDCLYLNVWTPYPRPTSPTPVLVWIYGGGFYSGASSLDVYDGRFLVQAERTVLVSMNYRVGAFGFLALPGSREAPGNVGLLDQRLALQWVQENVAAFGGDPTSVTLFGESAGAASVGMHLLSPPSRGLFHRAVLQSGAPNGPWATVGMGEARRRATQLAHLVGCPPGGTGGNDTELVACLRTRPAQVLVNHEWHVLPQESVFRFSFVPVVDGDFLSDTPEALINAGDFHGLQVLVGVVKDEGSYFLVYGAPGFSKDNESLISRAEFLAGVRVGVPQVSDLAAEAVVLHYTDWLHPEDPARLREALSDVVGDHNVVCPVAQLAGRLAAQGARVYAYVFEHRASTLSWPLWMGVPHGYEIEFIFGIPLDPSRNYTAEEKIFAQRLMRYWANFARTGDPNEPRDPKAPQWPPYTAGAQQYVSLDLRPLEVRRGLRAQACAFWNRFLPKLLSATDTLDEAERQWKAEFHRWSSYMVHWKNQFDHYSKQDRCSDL
For another series, the target named is T1, P2X purinoceptor 7 (Homo sapiens, UniProt Q99572).
T1 sequence (Q99572 whole entry): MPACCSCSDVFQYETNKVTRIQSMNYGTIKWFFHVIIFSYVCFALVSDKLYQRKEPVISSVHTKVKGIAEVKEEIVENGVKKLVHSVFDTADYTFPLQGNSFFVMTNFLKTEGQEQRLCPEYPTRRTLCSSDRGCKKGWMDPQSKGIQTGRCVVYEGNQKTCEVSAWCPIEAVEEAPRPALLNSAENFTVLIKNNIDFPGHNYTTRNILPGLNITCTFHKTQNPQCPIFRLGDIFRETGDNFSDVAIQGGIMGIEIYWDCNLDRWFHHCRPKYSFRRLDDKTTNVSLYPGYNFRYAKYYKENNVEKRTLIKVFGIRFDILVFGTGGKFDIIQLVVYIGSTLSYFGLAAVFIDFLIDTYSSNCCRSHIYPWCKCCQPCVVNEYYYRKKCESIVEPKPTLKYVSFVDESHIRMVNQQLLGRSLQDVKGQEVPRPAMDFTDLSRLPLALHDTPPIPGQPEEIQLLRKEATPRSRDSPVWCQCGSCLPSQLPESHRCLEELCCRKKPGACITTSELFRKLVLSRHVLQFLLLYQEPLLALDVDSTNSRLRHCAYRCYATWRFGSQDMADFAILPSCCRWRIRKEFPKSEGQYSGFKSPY
The series is described as follows: Antagonist activity at human P2X7 receptor expressed in HEK293 cells assessed as reduction in YO-PRO-1 iodide dye uptake preincubated for 30 mins followed by YO-PRO-1 iodide addition and measured after 120 mins by fluorescence plate reader analysis. In kind it is cell-based.

In series [3] the test system is SH-SY5Y. The series is described as follows: Neuroprotective activity in Abeta42 induced stress human SH-SY5Y cell model measured after 72 hrs by CTG luminescence assay. It counts as functional, cell-based.
For series [4], the species on record is Danio rerio. As to the kind of experiment: Anti-neuroinflammatory activity in Abeta42 induced zebrafish AD model assessed as reduction in number of activated microglia relative to control. It counts as functional. Details: scale not given: the % may be the effect or the level left.
Series [5] is described as follows: Selectivity index, ratio of Ki for displacement of [3H]DTG from sigma 2 receptor in rat liver membranes to Ki for displacement of [3H]-(+)-pentazocine from sigma1 receptor in guinea pig brain membrane. In kind it is cell membranes.
Series [6] concerns the target Sigma non-opioid intracellular receptor 1 (Cavia porcellus, UniProt Q60492). It counts as cell membranes, Brain, Membrane.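 Further: radioligand displacement of [3H]-(+)-pentazocine binding to sigma1 receptor in guinea pig brain membranes, read by scintillation counting after a 120 min incubation.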
Description: Displacement of [3H]-(+)-pentazocine from sigma1 receptor in guinea pig brain membrane measured after 120 mins by scintillation counting method
In series [7] the test system is SH-SY5Y. As to the kind of experiment: Neuroprotective activity in H2O2 induced stress human SH-SY5Y cell model measured after 48 hrs by MTT assay. In kind it is functional, cell-based.
A short description of series [8]: Cytotoxicity against HEK293 cells assessed as reduction in cell viability at 10 to 80 uM measured after 24 hrs by CTG- luminescence assay. The note with it: human. It counts as toxicity, cell-based.
The nature of series [9]: Permeability of the compound across blood brain barrier at pH 7.4 incubated for 16 hrs by PAMPA assay. As to conditions: read-out: permeability. It counts as ADME. Background: In PAMPA a lipid-coated filter parts donor from acceptor wells.
The target in a further series is Cholinesterase (Homo sapiens, UniProt P06276). The series is described as follows: Inhibition of human recombinant BuChe using butyrylthiocholine iodide as substrate incubated for 10 mins by DTNB reagent based Ellman's method. A general note: Ellman's reagent forms a yellow product with free thiols.
Chain of Cholinesterase (P06276 whole entry): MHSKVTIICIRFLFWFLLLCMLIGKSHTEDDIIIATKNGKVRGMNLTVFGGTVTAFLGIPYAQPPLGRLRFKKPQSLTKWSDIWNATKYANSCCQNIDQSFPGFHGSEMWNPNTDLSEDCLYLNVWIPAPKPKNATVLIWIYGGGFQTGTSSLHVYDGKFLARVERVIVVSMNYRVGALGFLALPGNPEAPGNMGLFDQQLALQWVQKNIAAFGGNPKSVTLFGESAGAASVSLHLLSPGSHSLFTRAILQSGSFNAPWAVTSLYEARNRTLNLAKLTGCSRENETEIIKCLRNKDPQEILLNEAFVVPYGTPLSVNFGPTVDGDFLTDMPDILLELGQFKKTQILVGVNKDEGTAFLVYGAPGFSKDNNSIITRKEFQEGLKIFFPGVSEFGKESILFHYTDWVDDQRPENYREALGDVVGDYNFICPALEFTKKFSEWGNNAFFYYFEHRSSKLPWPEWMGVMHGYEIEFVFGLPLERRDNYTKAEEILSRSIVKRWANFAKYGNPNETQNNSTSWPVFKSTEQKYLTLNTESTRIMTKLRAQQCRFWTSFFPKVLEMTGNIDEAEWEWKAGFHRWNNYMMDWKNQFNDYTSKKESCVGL
Series [10] has as its target T2, Sigma intracellular receptor 2 (Rattus norvegicus, UniProt Q5U3Y7).
T2 sequence (Q5U3Y7 whole entry): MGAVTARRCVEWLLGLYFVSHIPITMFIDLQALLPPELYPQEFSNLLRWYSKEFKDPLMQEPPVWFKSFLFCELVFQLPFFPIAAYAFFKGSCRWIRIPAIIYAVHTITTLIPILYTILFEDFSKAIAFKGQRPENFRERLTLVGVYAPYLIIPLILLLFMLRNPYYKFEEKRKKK
As to the kind of experiment: Displacement of [3H]DTG from sigma 2 receptor in rat liver membranes measured after 120 mins by scintillation counting method. It counts as cell membranes, Membrane.

Series [11] is described as follows: Permeability of the compound at pH 6.8 by HDM-PAMPA assay. In kind it is ADME. As to conditions: read-out: permeability.
Series [12] in a line: Selectivity index, ratio of Ki for displacement of [3H]-(+)-pentazocine from sigma1 receptor in guinea pig brain membrane to Ki for displacement of [3H]DTG from sigma 2 receptor in rat liver membranes. It counts as cell membranes.
The target of another series is Cytochrome P450 3A4 (Homo sapiens, UniProt P08684). The series is described as follows: Inhibition of CYP3A4 (unknown origin) preincubated for 10 mins followed by NADP addition measured after 50 mins. It counts as ADME.
Chain of Cytochrome P450 3A4 (P08684 whole entry): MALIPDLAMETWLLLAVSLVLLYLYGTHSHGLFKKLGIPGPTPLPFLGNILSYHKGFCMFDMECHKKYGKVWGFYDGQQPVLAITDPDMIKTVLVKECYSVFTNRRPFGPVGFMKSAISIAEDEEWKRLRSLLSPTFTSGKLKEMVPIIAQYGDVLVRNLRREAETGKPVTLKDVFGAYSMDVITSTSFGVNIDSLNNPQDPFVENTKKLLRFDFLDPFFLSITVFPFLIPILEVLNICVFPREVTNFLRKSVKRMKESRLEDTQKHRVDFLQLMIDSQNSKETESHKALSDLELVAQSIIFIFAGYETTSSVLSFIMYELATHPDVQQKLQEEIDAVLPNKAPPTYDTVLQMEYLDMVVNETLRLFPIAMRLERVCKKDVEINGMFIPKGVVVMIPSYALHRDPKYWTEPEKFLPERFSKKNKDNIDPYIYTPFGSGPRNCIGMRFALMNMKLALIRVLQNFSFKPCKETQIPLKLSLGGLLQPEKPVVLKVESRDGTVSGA
The target in another series is Cytochrome P450 2D6 (Homo sapiens, UniProt P10635). As to the kind of experiment: Inhibition of CYP2D6 (unknown origin) preincubated for 10 mins followed by NADP addition measured after 50 mins. In kind it is ADME.
Chain of Cytochrome P450 2D6 (P10635 whole entry): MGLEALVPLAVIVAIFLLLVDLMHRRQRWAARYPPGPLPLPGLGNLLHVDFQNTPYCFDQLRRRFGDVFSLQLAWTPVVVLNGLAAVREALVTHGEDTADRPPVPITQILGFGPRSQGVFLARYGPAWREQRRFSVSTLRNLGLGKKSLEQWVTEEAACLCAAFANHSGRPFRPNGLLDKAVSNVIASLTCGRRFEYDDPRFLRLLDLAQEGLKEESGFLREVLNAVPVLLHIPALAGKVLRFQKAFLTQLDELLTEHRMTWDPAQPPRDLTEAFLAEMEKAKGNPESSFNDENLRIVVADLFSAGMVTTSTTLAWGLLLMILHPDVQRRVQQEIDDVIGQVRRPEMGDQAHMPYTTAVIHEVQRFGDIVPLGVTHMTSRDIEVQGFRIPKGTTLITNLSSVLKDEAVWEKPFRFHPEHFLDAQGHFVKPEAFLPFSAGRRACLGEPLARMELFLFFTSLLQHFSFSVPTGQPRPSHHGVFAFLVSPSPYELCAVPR
A further series concerns the target Cytochrome P450 2C9 (Homo sapiens, UniProt P11712). The series is described as follows: Inhibition of CYP2C9 (unknown origin) preincubated for 10 mins followed by NADP addition measured after 50 mins. It counts as ADME.

Chain of Glutamate receptor ionotropic, NMDA 2B (Q13224 whole entry): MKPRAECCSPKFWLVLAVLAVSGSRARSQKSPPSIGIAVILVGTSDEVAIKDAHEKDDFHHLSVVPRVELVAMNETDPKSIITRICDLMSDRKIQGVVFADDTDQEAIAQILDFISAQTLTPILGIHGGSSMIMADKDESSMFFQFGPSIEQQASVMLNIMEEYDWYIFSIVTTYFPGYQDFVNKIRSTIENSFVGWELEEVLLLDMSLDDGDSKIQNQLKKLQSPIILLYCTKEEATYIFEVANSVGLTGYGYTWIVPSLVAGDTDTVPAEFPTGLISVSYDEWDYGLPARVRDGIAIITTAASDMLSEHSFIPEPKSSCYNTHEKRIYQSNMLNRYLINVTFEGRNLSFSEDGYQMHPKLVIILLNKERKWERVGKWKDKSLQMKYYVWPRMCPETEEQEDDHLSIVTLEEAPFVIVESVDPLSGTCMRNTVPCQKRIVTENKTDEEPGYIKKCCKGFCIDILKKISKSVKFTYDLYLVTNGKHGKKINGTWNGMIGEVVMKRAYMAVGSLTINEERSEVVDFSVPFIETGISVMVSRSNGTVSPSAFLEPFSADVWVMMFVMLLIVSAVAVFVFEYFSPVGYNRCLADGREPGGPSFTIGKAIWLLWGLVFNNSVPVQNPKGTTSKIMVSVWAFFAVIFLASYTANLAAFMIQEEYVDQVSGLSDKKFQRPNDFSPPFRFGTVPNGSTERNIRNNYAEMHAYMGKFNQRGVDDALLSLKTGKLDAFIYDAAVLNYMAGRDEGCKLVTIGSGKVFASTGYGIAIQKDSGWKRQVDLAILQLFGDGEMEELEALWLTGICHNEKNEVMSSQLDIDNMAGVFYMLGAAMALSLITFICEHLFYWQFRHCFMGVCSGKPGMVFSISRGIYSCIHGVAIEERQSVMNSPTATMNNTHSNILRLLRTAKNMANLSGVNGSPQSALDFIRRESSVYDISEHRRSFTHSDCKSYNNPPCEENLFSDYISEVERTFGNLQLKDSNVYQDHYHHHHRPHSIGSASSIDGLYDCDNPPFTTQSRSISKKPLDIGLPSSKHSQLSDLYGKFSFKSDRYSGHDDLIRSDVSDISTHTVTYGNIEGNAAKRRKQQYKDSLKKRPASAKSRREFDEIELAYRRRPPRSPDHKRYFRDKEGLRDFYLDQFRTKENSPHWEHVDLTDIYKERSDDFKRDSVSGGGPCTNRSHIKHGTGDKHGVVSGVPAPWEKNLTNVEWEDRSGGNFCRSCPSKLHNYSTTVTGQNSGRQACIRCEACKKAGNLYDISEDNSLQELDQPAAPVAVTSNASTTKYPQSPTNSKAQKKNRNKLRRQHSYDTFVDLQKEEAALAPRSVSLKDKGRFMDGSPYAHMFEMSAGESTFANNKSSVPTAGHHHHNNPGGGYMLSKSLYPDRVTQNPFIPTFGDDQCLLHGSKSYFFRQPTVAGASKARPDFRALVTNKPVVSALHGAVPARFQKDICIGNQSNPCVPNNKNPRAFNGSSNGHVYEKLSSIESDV
Chain of Sigma non-opioid intracellular receptor 1 (Q60492 whole entry): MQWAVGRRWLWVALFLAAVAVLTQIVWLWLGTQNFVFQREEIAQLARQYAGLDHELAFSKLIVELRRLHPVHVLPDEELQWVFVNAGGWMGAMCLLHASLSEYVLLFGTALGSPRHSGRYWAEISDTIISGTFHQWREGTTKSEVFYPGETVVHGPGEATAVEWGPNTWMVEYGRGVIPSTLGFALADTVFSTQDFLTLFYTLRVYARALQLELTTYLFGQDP
Chain of Cytochrome P450 2C9 (P11712 whole entry): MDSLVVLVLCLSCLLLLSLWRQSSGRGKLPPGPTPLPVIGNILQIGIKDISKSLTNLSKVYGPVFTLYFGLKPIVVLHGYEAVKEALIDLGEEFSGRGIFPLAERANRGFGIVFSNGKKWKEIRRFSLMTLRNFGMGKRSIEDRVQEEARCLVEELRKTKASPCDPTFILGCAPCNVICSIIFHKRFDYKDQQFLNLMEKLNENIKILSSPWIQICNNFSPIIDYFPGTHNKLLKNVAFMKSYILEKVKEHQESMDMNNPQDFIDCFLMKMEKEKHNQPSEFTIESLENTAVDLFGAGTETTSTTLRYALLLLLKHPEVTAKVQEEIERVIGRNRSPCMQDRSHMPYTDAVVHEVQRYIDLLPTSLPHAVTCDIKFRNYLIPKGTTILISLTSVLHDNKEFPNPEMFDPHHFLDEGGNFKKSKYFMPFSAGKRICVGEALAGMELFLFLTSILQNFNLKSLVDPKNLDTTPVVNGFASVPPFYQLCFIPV

Take `Cc1cccc2sc(NC(=O)CCN3CCN(CCCN(C)C)CC3)nc12`: the result in the series filed under Danio rerio [1], in the series on SH-SY5Y [3] and in the series with SH-SY5Y [7] was Active. Besides, the Ki in series [2] is 1.8 µM; in series [6], 0.57 µM; in [10], over 1 µM. Also, the IC50 at Acetylcholinesterase was 0.41 µM; at P2X purinoceptor 7, 18.1 µM; at Cholinesterase it was over 40 µM. In the series listed under Danio rerio [4], the Activity came out at 33.1%. In series [5], the Ratio Ki was over 1.75. Also, the half-inhibitory concentration (IC50) at 24 h in series [8] worked out at 20.5 µM. In addition, in series [9], the Papp at 16 h was 4 ×10⁻⁶ cm/s. For the same compound, in series [11], the Papp was 4.5 ×10⁻⁶ cm/s.

With `Cc1cccc2sc(NC(=O)CCN3CCN(c4ccncc4)CC3)nc12`, the Ratio Ki in series [12] is 5.65. The result in the series listed under Danio rerio [1], in the series on SH-SY5Y [3] and in the series on SH-SY5Y [7] was Active. For the same compound, the inhibitory constant (Ki) in series [2] amounted to 0.184 µM; in [6] it was 9.6 µM; in series [10], 1.7 µM. Besides, the 50% inhibitory concentration (IC50) is 18.2 µM on Acetylcholinesterase; 1.14 µM at Cytochrome P450 3A4; 13.6 µM against Cytochrome P450 2D6; 1.13 µM on P2X purinoceptor 7; 2.46 µM against Cytochrome P450 2C9; over 40 µM at Cholinesterase. Moreover, the Activity in the series listed under Danio rerio [4] is on record as 25.9%.

These data come from ChEMBL document CHEMBL5113531, “Discovery of Potent Cholinesterase Inhibition-Based Multi-Target-Directed Lead Compounds for Synaptoprotection in Alzheimer's Disease” (J Med Chem, 2022).
